Assays:
HT-29 tumor xenografts = experiment: HT-29 tumor xenograft in NSG mice; type: in vivo; conditions: 12.5 mg/kg three times per week
Description: FIGS. 4A-4F show AP-4-139B is efficacious as a single agent against human CRC in vitro and in vivo. FIG. 4A: Three CRC cell lines (HT-29, LS411N, and SW620) were treated with 10 μM of PET-16 or AP-4-139B for 48 hours. Cell were then subjected to viability assays using Trypan Blue exclusion. *** p<0.001. […] FIGS. 4B-4C: A panel of six CRC cell lines (SW620, HT-29, HCT 116+/−p53, RKO, and LS411N) were plated at a density of 1,000 cells per well in 96-well plates. The next day, cells were treated with the indicated inhibitors for 72 hours. Cells were then subjected to the Alamar Blue cell viability assays. Shown are representative IC50 values of an average of six technical replicates and two biological replicates. FIG. 4D: 2.5×10^6 HT-29 cells were injected subcutaneously into the right flank of NSG mice. Once tumors reached an approximate volume of 100 mm^3, mice were separated randomly into two groups: control vs. AP-4-139B. Mice were treated with 12.5 mg/kg AP-4-139B three times a week. All mice were euthanized 22 days after the start of treatment. Tumor volumes were recorded using digital calipers and using the formula v=length×width^2×0.52. *** p<0.001. n=10 mice per group. FIG. 4E: Immunohistochemistry (IHC) analysis of HT-29 xenograft tumors treated with AP-4-139B. Shown are representative images (4-6 random fields of view per condition) of Ki67 (proliferation) and Cleaved Lamin A (cell death). n=4 mice per group. Scale bar=100 μm. Respective IgG antibody was used as the negative control.
FIGS. 8A-8E show HSP70 inhibition is effective on mouse CRC cell lines. FIG. 8A: Association of HSPA1A gene expression and survival rate of patients with colorectal adenocarcinoma (COAD). Patient data was gathered from USCS Xena platform (GDC-TCGA COAD; n=435). Log-rank test was used to determine significance. p=0.0004. FIG. 8B: Association of HSPA1A gene expression and stage of COAD (n=440). Wilcoxon rank sum test was used to determine significance. * p<0.05, *** p<0.001. FIG. 8C: Body weights of mice injected with HT-29 tumor xenografts. Weights were measured at the start of the treatment to determine mouse toxicity. n.s. not significant, n=10 mice per group. FIG. 8D: H&E staining of livers and colons of mice injected with HT-29 tumor xenografts. Tissues were collected at the end of the study. FIG. 8E. Pharmacokinetic values of AP-4-139B in the liver, plasma, and brain from three CDI mice treated with 10 mg/kg of compound.
Shown are representative images of COXIV and a-SMA. n=5 mice per group. Scale bar=100 μm.
All studies were carried out in accordance with the recommendations in the Guide for the Care and Use of Laboratory Animals of the National Institutes of Health (NIH). All protocols were approved by The Wistar Institute Institutional Animal Care and Use Committee (IACUC). Mice were housed in plastic cages with ad libitum diet and maintained with a 12-hour dark/12-hour light cycle at 22° C. For human xenograft studies, 2.5×10^6 HT-29 cells were injected subcutaneously into the right flanks of 6-8 week old male NSG (NOD.Cg-Prkdcscid II2rgtm1 Wjl/SzJ) mice. For mouse xenograft studies, 1×10^6 MC38 cells were subcutaneously into the right flanks of 6-8 week old male C57Bl/6J mice. Tumor volumes were measured using digital calipers and tumor volume was calculated using the formula: volume=(length×width^2)×0.52. All mice were monitored daily for signs of pain or distress.

MC38 cells = experiment: Membrane associated calreticulin analysis by flow cytometry; type: cell-based, mouse; conditions: 24 hours
Description: FIG. 6D: MC38 cells were treated with 5 μM AP-4-139B for 24 hours and subjected to flow cytometry, using Alexa488-tagged calreticulin antibody. *** p<0.001, n=4 biological replicates performed in duplicate. FIG. 6E: MC38 cells were treated with increasing concentrations of AP-4-139B, G-TPP, 17-AAG or Metformin for 3 hours and then assayed for extracellular ATP release. Three independent cultures were assayed for each treatment, and DMSO-treated cells were used as internal controls. Error bars represent standard deviation (SD).
Flow cytometry was used to detect calreticulin localization after exposure to Doxorubicin (positive control) or AP-4-139B. MC38 cells were plated at a density of 3×10^5 cells per well in 6-well plates. The following day, cells were treated with 1 μM of doxorubicin, 15 μM of AP-4-139B (MC38), or 5 μM of AP-4-139B (CT26). After 24 hours, cells were collected and stained with anti-CRT antibody (ab196158) (Abcam) diluted in a solution of 1% FBS in PBS for 30 minutes on ice in the dark. Cells were then washed with PBS and stained with DAPI (1 μg/mL) for 5 minutes prior to analysis. Samples were analyzed using a FACSCelesta (Becton Dickinson) flow cytometer. […] Fluorescent intensity of DAPI negative cells was measured and at least 10,000 events in the analysis gate were obtained.

SMILES: c1ccc(-c2cn3nc(CCCCCC[P+](c4ccccc4)(c4ccccc4)c4ccccc4)sc3n2)cc1 [AP-4-139B, Triphenyl(6-(6-phenylimidazo[2,1-b][1,3,4]thiadiazol-2-yl)hexyl)phosphonium bromide]
- Ki-67 staining in tumors (HT-29 tumor xenografts): reduced staining for Ki-67
- cleaved lamin A staining in tumors (apoptosis) (HT-29 tumor xenografts): increased staining for cleaved lamin A
- loss of mitochondria in treated tumors (COX IV staining) (HT-29 tumor xenografts): No evidence was found that AP-4-139B caused obvious loss of mitochondria
- progression of HT-29 tumor xenografts (HT-29 tumor xenografts): significantly reduced the progression of HT-29 tumor xenografts
- toxicity (weight loss, liver or colon architecture) (HT-29 tumor xenografts): No evidence for toxicity
- calreticulin mobilization to the plasma membrane (MC38 cells): calreticulin mobilization to the plasma membrane

Reference: patent US12616753B2, “HSP70 inhibitors and methods of using same” (THE WISTAR INSTITUTE, priority 2020, dated 2026)
